Tested on: IMC ascites tumor
Test: Concomitant treatment with bleomycin and spermidine on IMC ascites tumor, survival
Type: in vivo, CDF1 mice
Protocol: The pharmacological effects of spermidine will be illustrated by reference to the following experimental examples, in which spermidine was administered as its phosphate dissolved in physiological saline.
(c) 1×10^6 IMC cancer cells were transplanted into CDF1 mice by intraperitoneal injection (Day 0). Bleomycin (5 mg/kg) was administered once daily for 5 consecutive days, and spermidine (5 mg/kg) was administered a total of 10 times on alternative days. The effect of concomitant treatment with spermidine and the anticancer drug was evaluated by considering the number of days that the mice survived.

Substance: bleomycin [reference compound]
- Survival rate on Day 60 (bleomycin (5 mg/kg) alone): 0/10
- Survival period (bleomycin (5 mg/kg) alone, once daily for 5 consecutive days): 31.2 ± 9.4 days
- Increase of life span (bleomycin (5 mg/kg) alone, control = 100): 176%
- life span increase compared with the control group (bleomycin alone): 76%

From patent US4559362A, “Immunopotentiator” (Zaidan Hojin Biseibutsu Kagaku Kenkyu Kai, priority 1982, dated 1985)
